Patent US8119563B2, “N-substituted azacycles” (FMC Corporation, priority 2003, dated 2012)

Test system: tobacco budworm (Heliothis virescens [Fabricius])
Assay: surface-treated diet test, insecticidal activity against tobacco budworm
Format: in vivo
Design: mortality: concentration or dose not given beside the values
Conditions: 0.25 millimoles of candidate insecticide on the surface of the diet, second instar larvae, five-day exposure
Procedure: Candidate insecticides were evaluated for activity against the tobacco budworm (Heliothis virescens [Fabricius]) in a surface-treated diet test.
In this test one mL of molten (65-70° C.) wheat germ-based artificial diet was pipetted into each well of a four by six (24 well) multi-well plate (ID# 430345-15.5 mm dia.×17.6 mm deep; Corning Costar Corp., One Alewife Center, Cambridge, Mass. 02140). The diet was allowed to cool to ambient temperature before treatment with candidate insecticide.
For a determination of insecticidal activity, solutions of the candidate insecticides were prepared for testing using a Packard 204DT Multiprobe® Robotic System (Packard Instrument Company, 800 Research Parkway, Meriden, Conn. 06450), in which the robot first diluted a standard 50 millimolar DMSO solution of candidate insecticide with a 1:1 water/acetone solution (V/V) in a ratio of 1:7 stock solution to water/acetone. The robot subsequently pipetted 40 microliters of the so-prepared solution onto the surface of the diet in each of three wells in the 24 multi-well plate. The process was repeated with solutions of seven other candidate insecticides. Once treated, the contents of the multi-well plate were allowed to dry, leaving 0.25 millimoles of candidate insecticide on the surface of the diet, or a concentration of 0.25 millimolar. Appropriate untreated controls containing only DMSO on the diet surface were also included in this test.
For evaluations of the insecticidal activity of a candidate insecticide at varying rates of application, the test was established as described above using sub-multiples of the standard 50 millimolar DMSO solution of candidate insecticide. For example, the standard 50 millimolar solution was diluted by the robot with DMSO to give 5, 0.5, 0.05, 0.005, 0.0005 millimolar, or more dilute solutions of the candidate insecticide. In these evaluations there were six replicates of each rate of application placed on the surface of the diet in the 24 multi-well plate, for a total of four rates of application of candidate insecticide in each plate.
In each well of the test plate was placed one second instar tobacco budworm larvea, each weighing approximately five milligrams. After the larvae were placed in each well, the plate was sealed with clear polyfilm adhesive tape. The tape over each well was perforated to ensure an adequate air supply. The plates were then held in a growth chamber at 25° C. and 60% relative humidity for five days (light 14 hours/day).
After the five-day exposure period insecticidal activity for each rate of application of candidate insecticide was assessed as percent inhibition of insect weight relative to the weight of insects from untreated controls, and percent mortality when compared to the total number of insects infested.
The test compounds of formula I are identified by numbers that correspond to those in Table 1.

[1] = compared to total number of insects infested
[2] = inhibition of insect weight relative to untreated controls

Row | Structure (SMILES) | Percent Mortality [1] [%] | Percent Growth Inhibition [2] [%] | mortality (Heliothis virescens, 120 h, compared to total number of insects infested, read-out: Percent Mortality) [%] | pest or weed control at 0.25 mmol/well (Heliothis virescens, 120 h, inhibition of insect weight relative to untreated controls, read-out: Percent Growth Inhibition) [%]
1 | NCC1(C(c2ccc(C(F)(F)F)cc2)c2ccc(C(F)(F)F)cc2)CCN(Cc2ccc(OCC3CC3)cc2)CC1 [Compound 450] | 50 | 100 | – | –
2 | Cc1ccc(C(c2ccc(OC(F)(F)F)cc2)C2(O)CCN(Cc3ccc(Oc4ccccn4)cc3)CC2)cc1 (centres unmarked) [Compound 262] | 100 | 100 | – | –
3 | OC1(C(c2ccc(C(F)(F)F)cc2)c2ccc(F)c(F)c2)CCN(Cc2ccc(Oc3ncccn3)cc2)CC1 (centres unmarked) [Compound 17] | 83 | 100 | – | –
4 | CCON=Cc1ccc(C[N+]2([O-])CCC(O)(C(O)(c3ccc(OC(F)(F)F)cc3)c3ccc(OC(F)(F)F)cc3)CC2)cc1 (centres unmarked) [Compound 424] | 100 | 100 | – | –
5 | [O-][N+]1(Cc2ccc(C3OCCO3)cc2)CCC(O)(C(c2ccc(OC(F)(F)F)cc2)c2ccc(OC(F)(F)F)cc2)CC1 (centres unmarked) [Compound 341] | 100 | 100 | – | –
6 | CCn1nnc(-c2ccc(CN3CCC(O)(C(O)(c4ccc(OC(F)(F)F)cc4)c4ccc(OC(F)(F)F)cc4)CC3)cc2)n1 [Compound 416] | 100 | 100 | – | –
7 | OC1(C(c2ccc(OC(F)(F)F)cc2)c2ccc(OC(F)(F)F)cc2)CCN(Cc2ccc(Oc3cccc(Cl)c3)cc2)CC1 [Compound 286] | 100 | 100 | – | –
8 | [N-]=[N+]=NCC1(C(c2ccc(C(F)(F)F)cc2)c2ccc(C(F)(F)F)cc2)CC[N+]([O-])(Cc2ccc(OCC3CC3)cc2)CC1 (centres unmarked) [Compound 467] | 50 | 100 | – | –
9 | Cc1ccc(Oc2ccc(C[N+]3([O-])CCC(O)(C(c4ccc(OC(F)(F)F)cc4)c4ccc(OC(F)(F)F)cc4)CC3)cc2)nc1 (centres unmarked) [Compound 350] | 100 | 100 | – | –
10 | [O-][N+]1(Cc2ccc(OCC3CC3)cc2)CCC(O)(C(c2ccc(C(F)(F)F)cc2)c2ccc(C(F)(F)F)cc2)CC1 (centres unmarked) [Compound 383] | 100 | 100 | – | –
11 | CC(C)Oc1ccc(C[N+]2([O-])CCC(O)(C(c3ccc(C(F)(F)F)cc3)c3ccc(C(F)(F)F)cc3)CC2)cc1 (centres unmarked) [Compound 380] | 100 | 100 | – | –
12 | OC1(C(c2ccc(OC(F)(F)F)cc2)c2ccc(OC(F)(F)F)cc2)CCN(Cc2ccc(Oc3ncccc3Cl)cc2)CC1 [Compound 322] | 100 | 100 | – | –
13 | OC1(C(c2ccc(OC(F)(F)F)cc2)c2ccc(Cl)c(Cl)c2)CCN(Cc2ccc(Oc3ccccn3)cc2)CC1 (centres unmarked) [Compound 441] | 100 | 100 | – | –
14 | N#CCON=Cc1ccc(CN2CCC(O)(C(c3ccc(OC(F)(F)F)cc3)c3ccc(OC(F)(F)F)cc3)CC2)cc1 [Compound 275] | 100 | 100 | – | –
15 | N#Cc1cccnc1Oc1ccc(C[N+]2([O-])CCC(O)(C(c3ccc(OC(F)(F)F)cc3)c3ccc(OC(F)(F)F)cc3)CC2)cc1 (centres unmarked) [Compound 359] | 100 | 100 | – | –
16 | O=C([O-])C1CCCCC1.OC1(C(c2ccc(OC(F)(F)F)cc2)c2ccc(OC(F)(F)F)cc2)CC[N+](O)(Cc2ccc(Oc3ccccn3)cc2)CC1 (centres unmarked) [Compound 502] | 100 | 100 | – | –
17 | CCON=Cc1ccc(C[N+]2(O)CCC(O)(C(c3ccc(OC(F)(F)F)cc3)c3ccc(OC(F)(F)F)cc3)CC2)cc1.O=C(O)CC(O)(CC(=O)O)C(=O)[O-] (centres unmarked) [Compound 494] | 100 | 100 | – | –
18 | CC(C)OC(=O)Nc1ccc(C[N+]2([O-])CCC(O)(C(O)(c3ccc(OC(F)(F)F)cc3)c3ccc(OC(F)(F)F)cc3)CC2)cc1 (centres unmarked) [Compound 423] | 100 | 100 | – | –
19 | [O-][N+]1(CCOc2ccc(Cl)cc2)CCC(O)(C(c2ccc(OC(F)(F)F)cc2)c2ccc(OC(F)(F)F)cc2)CC1 (centres unmarked) [Compound 478] | 100 | 100 | – | –

Row | Structure (SMILES) | Percent Mortality [1] [%] | Percent Growth Inhibition [2] [%] | mortality (Heliothis virescens, 120 h, compared to total number of insects infested, read-out: Percent Mortality) [%] | pest or weed control at 0.25 mmol/well (Heliothis virescens, 120 h, inhibition of insect weight relative to untreated controls, read-out: Percent Growth Inhibition) [%]
20 | COc1cc(CN2CCC(O)(C(c3ccc(OC(F)(F)F)cc3)c3ccc(OC(F)(F)F)cc3)CC2)ccc1Oc1ccccn1 [Compound 447] | 100 | 100 | – | –
21 | OC1(C(c2ccc(OC(F)(F)F)cc2)c2ccc(OC(F)(F)F)cc2)CCN(Cc2ccc(OCc3ccccc3)cc2)CC1 [Compound 304] | 100 | 100 | – | –
22 | N#Cc1cccnc1Oc1ccc(CN2CCC(O)(C(c3ccc(OC(F)(F)F)cc3)c3ccc(OC(F)(F)F)cc3)CC2)cc1 [Compound 281] | 100 | 100 | – | –
23 | O=C([O-])CCCC(=O)O.OC1(C(c2ccc(OC(F)(F)F)cc2)c2ccc(OC(F)(F)F)cc2)CC[N+](O)(Cc2ccc(Oc3ccccn3)cc2)CC1 (centres unmarked) [Compound 512] | 100 | 100 | – | –
24 | [O-][N+]1(Cc2ccc(Oc3ncccn3)cc2)CCC(O)(C(c2ccc(OC(F)(F)C(F)C(F)(F)F)cc2)c2ccc(OC(F)(F)C(F)C(F)(F)F)cc2)CC1 (centres unmarked) [Compound 409] | 100 | 100 | – | –
25 | [O-][N+]1(Cc2ccc(Oc3ncccn3)cc2)CCC(O)(C(c2ccc(OC(F)(F)F)cc2)c2ccc(OC(F)(F)F)cc2)CC1 (centres unmarked) [Compound 112, 4-{bis[4-(trifluoromethoxy)phenyl]methyl}-4-hydroxy-1-[(4-pyrimidin-2-yloxyphenyl)methyl]piperidin-1-oxide] | – | – | 100 | 100
26 | [O-][N+]1(Cc2ccc(Oc3ccccn3)cc2)CCC(O)(C(O)(c2ccc(OC(F)(F)F)cc2)c2ccc(OC(F)(F)F)cc2)CC1 (centres unmarked) [Compound 421] | 100 | 100 | – | –
27 | OC1(C(c2ccc(C(F)(F)F)cc2)c2ccc(C(F)(F)F)cc2)CCN(Cc2ccc(C3OCCO3)cc2)CC1 [Compound 264] | 33 | 100 | – | –
28 | O=C([O-])CO.OC1(C(c2ccc(OC(F)(F)F)cc2)c2ccc(OC(F)(F)F)cc2)CC[N+](O)(Cc2ccc(Oc3ccccn3)cc2)CC1 (centres unmarked) [Compound 510] | 100 | 100 | – | –
29 | COCCON=Cc1ccc(CN2CCC(O)(C(c3ccc(OC(F)(F)F)cc3)c3ccc(OC(F)(F)F)cc3)CC2)cc1 [Compound 266] | 100 | 100 | – | –
30 | Cc1cccnc1Oc1ccc(C[N+]2([O-])CCC(O)(C(c3ccc(OC(F)(F)F)cc3)c3ccc(OC(F)(F)F)cc3)CC2)cc1 (centres unmarked) [Compound 349] | 100 | 100 | – | –
31 | OC1(C(c2ccc(OC(F)(F)F)cc2)c2ccc(OC(F)(F)F)cc2)CCN(CCCCOc2ccc(Cl)cc2)CC1 [Compound 476] | 67 | 100 | – | –
32 | CCON=Cc1ccc(C[N+]2(O)CCC(O)(C(c3ccc(OC(F)(F)F)cc3)c3ccc(OC(F)(F)F)cc3)CC2)cc1.O=S(=O)([O-])CCCO (centres unmarked) [Compound 483] | 100 | 100 | – | –
33 | OC1(C(c2ccc(C(F)(F)F)cc2)c2cc(Cl)ccc2Cl)CCN(Cc2ccc(Oc3ncccn3)cc2)CC1 (centres unmarked) [Compound 13] | 100 | 100 | – | –
34 | OC1(C(c2ccc(C(F)(F)F)cc2)c2ccc(C(F)(F)F)cc2)CCN(Cc2ccc(Oc3ccc(Cl)nn3)cc2)CC1 [Compound 307] | 100 | 100 | – | –
35 | [O-][N+]1(Cc2ccc(OCC3CC3)cc2)CCC(O)(C(c2ccc(OC(F)(F)F)cc2)c2ccc(OC(F)(F)F)cc2)CC1 (centres unmarked) [Compound 392] | 100 | 100 | – | –
36 | N#Cc1ccc(Oc2ccc(CN3CCC(O)(C(c4ccc(OC(F)(F)F)cc4)c4ccc(OC(F)(F)F)cc4)CC3)cc2)nc1 [Compound 283] | 100 | 100 | – | –
37 | OC1(C(c2ccc(C(F)(F)F)cc2)c2cc(F)cc(F)c2)CCN(Cc2ccc(Oc3ncccn3)cc2)CC1 (centres unmarked) [Compound 11] | 33 | 100 | – | –
